Data set [1] has as its target T1, hCatK (Homo sapiens, UniProt P43235).
T1 sequence (P43235 115-329): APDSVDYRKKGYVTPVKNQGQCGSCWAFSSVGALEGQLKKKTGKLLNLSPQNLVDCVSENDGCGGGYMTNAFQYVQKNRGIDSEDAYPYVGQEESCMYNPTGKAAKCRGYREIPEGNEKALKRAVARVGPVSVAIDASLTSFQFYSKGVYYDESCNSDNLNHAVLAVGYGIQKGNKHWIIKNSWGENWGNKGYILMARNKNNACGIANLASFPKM
The experiment in a line: Jump dilution assay for reversibility of hCatK inhibition. As to conditions: 300× dilution into fluorogenic substrate solution. It counts as biochemical. The procedure:
FIG. 3 provides a schematic overview of a jump dilution assay. A) Dose response curve for a 300-fold dilution of inhibitor concentration from full inhibition to full activity. B) Protocol and concentrations for incubation and dilution. C) Progress curves for hCatK proteolytic activity with inhibitor compounds ODN, 4, 5, 6 after dilution.
Reversibility of protease inhibition by an inhibitor may be assessed in a jump dilution assay. An exemplary jump dilution assay is provided in R. A. Copeland, A. Basavapathruni, M. Moyer, M. P. Scott, Anal. Biochem. 2011, 416, 206. In a jump dilution assay the protease (e.g. CatK) is incubated with inhibitor at high concentration to allow full active site occupation, and subsequently diluted, e.g. 300×, into fluorogenic substrate solution resulting in an inhibitor concentration corresponding with full protease activity. The hydrolysis of fluorogenic substrate is monitored over an extended time period, e.g. at least 60 minutes. […] The assay results may be compared with the results using a known irreversible inhibitor of the protease as a control. E-64 represents an established pan-Cathepsin irreversible inhibitor, suitable for use as a positive control with most cysteine protease Cathepsins.
Reversibility of hCatK inhibition was assessed in a jump dilution assay. Established pan-Cathepsin inhibitor E-64 was taken along as a control for irreversible inhibition. Purified hCatK was incubated with inhibitors at high concentration to allow full active site occupation, and subsequently diluted 300× into fluorogenic substrate solution resulting in an inhibitor concentration corresponding with full activity (FIG. 3).

The target of data set [2] is T1, hCatK. The experiment in a line: Kinetic evaluation of covalent inhibitors on purified hCatK. Format: biochemical. As to conditions: 100 pM hCatK, 4 μM Z-FR-AMC, 26° C., reaction started by addition of CatK; for Ki: read-out: Kl; for kinact: read-out: kinact (converted). The procedure: The reaction kinetics of irreversible covalent inhibitor compounds may be assed in the following manner. Inhibitors (200 nL, 100× final concentration in DMSO) were diluted in reaction buffer (10 μL). Fluorogenic substrate (5 μL, 4× final concentration) was added and the reaction was started by addition of Cathepsin (5 μL, 4× final concentration). Fluorescence intensity was measured every 2 minutes for 60 minutes and fitted to equation I to obtain the Kobs. The obtained values were plotted against the inhibitor concentration and fitted to equation II to obtain kinetic parameters Kinact (rate of covalent bond formation) and Ki.
Kinetic evaluation of irreversible covalent inhibitors was conducted by following the progress curve of inhibition when the hydrolysis of substrate is started by addition of the enzyme (instead of incubating the protease with the inhibitor prior to addition of the substrate). From this curve the maximum rate of covalent bond formation (Kinact) could be determined (Table 4).

For a further data set, the system named is human osteoclasts (OCs). The experiment in a line: Inhibition of bone resorption by human osteoclasts cultured on cortical bone slices. It counts as cell-based. As to conditions: for effective dose / concentration inhibiting bone resorption: human OCs on cortical bone slices, staining at day 21. The procedure: The inhibitory properties on CatK of inhibitors of this invention were tested in a biologically relevant setting: inhibition of bone resorption by osteoclasts (OCs). OCs are the cells that degrade the bone matrix by secretion of acid and CatK into the resorption lacunae, resulting in the cleavage of collagen type I. Inhibition of osteoclastic CatK was studied by culturing OCs on cortical bone slices in presence of inhibitors of this invention (FIG. 5). […] OCs predominantly form deep trenches (paths) while OCs lacking CatK form small pits (circular dots). B) CD14+ monocytes on bone slices were treated with MCSF (day 0) and RANKL (day 3) to stimulate differentiation to mature OCs. Medium containing either an inhibitor or DMSO was refreshed on day 7, 10, 13 and 16. At day 21, OCs were washed away and lysed, and bone slices were stained to visualize bone resorption. C) Bone resorption visualized by staining of resorption pits with Coomassie Brilliant Blue. More staining means more resorption pits, thus more bone resorption activity. Normal D) Schematic overview of pro-Cathepsin K activation. E) CatK activity and expression in OC lysates. […] Darker bands indicate more activity/expression of CatK.

The conditions of data set [3]: in vivo; cited from earlier work.
For data set [4] the following is noted: phase III clinical trials; cited from earlier work.
A further data set has as its target T2, CatK (Homo sapiens, UniProt P43235).
T2 sequence (P43235 115-329): T1 sequence (P43235 115-329)
To be noted: cited from earlier work.

This is an account of results in patent US12371400B2, “Cathepsin inhibitors” (ACADEMISCH ZIEKENHUIS LEIDEN (H.O.D.N. LUMC), priority 2017, dated 2025).

`C#CC(C)NC(=O)[C@H](CC(C)(C)F)N[C@@H](c1ccc(-c2ccc(S(C)(=O)=O)cc2)cc1)C(F)(F)F` (mixture of isomers) [Compound 5, (S)—N—((R/S)-but-3-yn-2-yl)-4-fluoro-4-methyl-2-(((S)-2,2,2-trifluoro-1-(4′-(methylsulfonyl)-[1,1′-biphenyl]-4-yl)ethyl)amino)pentanamide]: the “reversibility of hCatK inhibition” value at hCatK [1] is on record as “irreversible”. Moreover, at hCatK [2], the kinact/Kl came to 250 M⁻¹ s⁻¹, the Ki came out at 3.25 µM and the kinact was 0.000783 s⁻¹. Also, the “inhibition of bone resorption” value in the data set with human osteoclasts (OCs) (all tested concentrations) is recorded as “non-conclusive”.
As to `C#CCNC(=O)[C@H](CC(C)(C)F)N[C@@H](c1ccc(-c2ccc(S(C)(=O)=O)cc2)cc1)C(F)(F)F` [Compound 4, (S)-4-fluoro-4-methyl-N-(prop-2-yn-1-yl)-2-(((S)-2,2,2-trifluoro-1-(4′-(methylsulfonyl)-[1,1′-biphenyl]-4-yl)ethyl)amino)pentanamide], the “reversibility of hCatK inhibition” value on hCatK [1] is “irreversible”. Besides, on hCatK [2], the kinact/Kl turned out to be 883 M⁻¹ s⁻¹, the Ki was 0.212 µM and the kinact was 0.000183 s⁻¹. Also, the “effective dose / concentration inhibiting bone resorption” value in the data set with human osteoclasts (OCs) is no less than 80 nM.
In the case of `CC(C)(F)C[C@H](N[C@@H](c1ccc(-c2ccc(S(C)(=O)=O)cc2)cc1)C(F)(F)F)C(=O)NC1(C#N)CC1` [ODN, (S)—N-(1-cyanocyclopropyl)-4-fluoro-4-methyl-2-(((S)-2,2,2-trifluoro-1-(4′-(methylsulfonyl)-[1,1′-biphenyl]-4-yl)ethyl)amino)pentanamide, reference compound], the “reversibility of hCatK inhibition” value on hCatK [1] is “(fast) reversible inhibitor”. In addition, the “bone resorption staining of bone slices” value was “formation of deep trenches” with human osteoclasts (OCs) (3 nM) and “formation of shallow pits” in the data set on human osteoclasts (OCs) (15 nM). Further, the “effective dose / concentration inhibiting bone resorption” value in the data set with human osteoclasts (OCs) is recorded as “around 15 nM”. Besides, the half-life in data set [3] is 66 to 93 h. For the same compound, the stroke risk entry in data set [4] was “increased stroke risk”. Moreover, the “selectivity for CatK versus other Cathepsins” value at CatK is “high selectivity”.
